According to article PMC11595864, “Design, Synthesis, and Evaluation of Novel Thiazole-Containing Algicides Inspired by Bacillamide A” (Marine Drugs, 2024):
In brackets after ≈: the same amount, converted by molar mass.

What was measured:
[1] = system: S. costatum; assay: Algicidal activity assay, EC50; type: cell-based, Skeletonema costatum; conditions: Skeletonema costatum; Mean ± SD, n = 3; read-out: EC50 S. costatum
Description: (§1) P. minimum, A. pacificum, and S. costatum were purchased from Guangyu Biological Technology Co., Ltd. (Shanghai, China). The algae strain was cultured in F/2 medium ((12 h light: 12 h dark cycle), 20 ± 1 °C, 70 μmol m^−2 s^−1). Purchased algae were transferred to sterile conical flasks for culture; after the algae proliferation was stabilized, the expanded culture was next carried out following standard conditions.
(§2) Copper sulfate and Diuron were used as the positive controls. EC50 values were calculated according to the equation of the quantity–effect relationship in Equation (2) using the Hill model of Graph Pad Prism software (8.0.2). (2) Y=Bottom+(Top-Bottom)/1+10^(Log EC50-X)×Hill Slope
(§3) The X and Y values represent the concentration (mg/L) and response values of the control and experimental groups, respectively. The Top, Bottom, and Hill Slope represent the maximum response, minimum response, and the curve slope, respectively. The EC50 represents half of the maximum effective concentration.

[2] = system: A. pacificum; assay: Algicidal activity assay, EC50; type: cell-based, Alexandrium pacificum; conditions: for EC50: Alexandrium pacificum, Mean ± SD, n = 3
Description: as §1, §2, §3

[3] = system: P. minimum; assay: Algicidal activity assay, EC50; type: cell-based, Prorocentrum minimum; conditions: for EC50: Prorocentrum minimum, Mean ± SD, n = 3, read-out: EC50 P. minimum
Description: as §1, §2, §3

[4] = system: A. pacificum; assay: Growth-inhibition rate measurement at 50 mg/L, 24 h; type: cell-based, Alexandrium pacificum; conditions: Alexandrium pacificum, read-out: inhibition rate against A. pacificum
Description: as §1
(§4) The stock solutions of bacillamide A and different BDs were prepared in dimethyl sulfoxide (DMSO) with the requisition amount. […] The controls received the same volume of DMSO. The inhibitory activities of bacillamide A, different BDs, and positive controls were screened by 96 well microtiter plates at different concentrations. Inhibition ratios (IRs) of cupric sulfate (50 mg/L, positive control), bacillamide A (50 mg/L), and BDs (50 mg/L) were calculated on algae using Equation (1). (1) IR=Cc0-Cex/Cc0×100%
(§5) The CC0 and Cex, respectively, represent the algal densities of the control and experimental groups.

[5] = system: zebrafish; assay: Zebrafish acute toxicity assay; type: in vivo
Description: Zebrafish acute toxicity of bacillamide A and synthesized BDs were evaluated at 0.1 mg/L, 1 mg/L, and 10 mg/L, respectively. Diuron and CuSO4 were used as positive controls. The commercial zebrafish (body length > 3.0 cm) were domesticated in aerated tap water for 24 h, fed once daily for seven consecutive days, and stopped being fed before the experiment.
4. Acute toxicity table S1.
Compound Concentration Survival percent Acute
aAccording to the Guide for Environmental Safety Assessment of Chemical Pesticides
4 groups and treated with different compounds for 96 h.

[6] = system: PSII in P. minimum; assay: Quantum yield Fv/Fm of PSII; type: cell-based, Prorocentrum minimum; conditions: 10 mg/L, 72 h, versus negative control
Description: (§6) P. minimum, S. costatum, and A. pacificum cells were cultured in F/2 medium. All flasks were cultivated under 12 h of light: 12 h of dark and 70 μmol m^−2 s^−1 at 20 ± 1 °C. […] Finally, the algal cells were collected and diluted in 6 mL of phosphate buffer (pH = 7.8). A small amount of quartz sand was added into the algal cells under ice bath. The obtained homogenate was next poured into a centrifuge tube and centrifuged at 5000 r/min for 25 min at 4 °C. The obtained supernatant was placed in the refrigerator at 4 °C for the next step experiment.
(§7) Fv/Fm values were determined by using AquaPen handheld algae fluorescence meter (Nanjing Mingao Instrument Co., Ltd., Nanjing, China). The algae cells were darkened for 30 min and Fv/Fm values were measured.

[7] = system: PSII in S. costatum; assay: Quantum yield Fv/Fm of PSII; type: cell-based, Skeletonema costatum; conditions: 10 mg/L, 72 h, versus negative control
Description: as §6, §7

[8] = system: P. minimum; assay: MDA level (thiobarbituric acid assay kit); type: cell-based, Prorocentrum minimum; conditions: 10 mg/L, 72 h, versus control (DMSO)
Description: as §6
(§8) The malondialdehyde (MDA) assay kit was purchased from Lvyuandade Biochemical Co, Ltd., Beijing, China. The MDA parameter was monitored according to the procedure provided by the manufacturer. A total of 1 mL of algal extract was mixed with thiobarbituric acid solution (2 mL, 0.6%). The solution was sealed and kept in a boiling water bath for 15 min, followed by being cooled and centrifuged at 4500 r/min for 10 min. The absorbance values of collected supernatant were measured and calculated by the Formula (3) at 600 nm, 532 nm, and 450 nm:MDA content (nmol∙mgprot^−1) = 6.45 × (A532 − A600) − 0.56 × A450(3)

[9] = system: S. costatum; assay: MDA level (thiobarbituric acid assay kit); type: cell-based, Skeletonema costatum; conditions: 10 mg/L, 72 h, versus control (DMSO)
Description: as §6, §8

[10] = system: other microalgae (e.g., diatoms, cyanobacteria, green algae); set-up: method as in doi:10.1016/j.tetlet.2003.08.115, PMID 17454826; conditions: cited from earlier work
[11] = system: Salmonella choleraesuis; set-up: method as in PMID 32483303; conditions: cited from earlier work
[12] = system: Vibrio cholerae; set-up: method as in PMID 32483303; conditions: cited from earlier work
[13] = system: Alternaria sp.; set-up: method as in PMID 32483303; conditions: cited from earlier work
[14] = system: S. costatum; assay: Growth-inhibition rate measurement at 50 mg/L, 24 h; type: cell-based, Skeletonema costatum
Description: as §1, §4, §5

[15] = system: P. minimum; assay: as above; type: cell-based, Prorocentrum minimum; conditions: Prorocentrum minimum, read-out: inhibition rate against P. minimum
Description: as §1, §4, §5

[16] = system: S. costatum; assay: Observation of cellular morphology (optical microscope, SEM); type: cell-based, Skeletonema costatum; conditions: 10 mg/L, 4 h
Description: (§9) There were morphological changes of algae cells treated by bacillamide A, BDs, and the positive control (CuSO4). […] Cell samples were centrifuged at 12,000 rpm for 10 min, collected, fixed, gradient-dehydrated, and freeze-dried after gold coating following the reported procedure. The SEM analyses were performed by scanning electron microscopy (SEM, JSM-7900F, […], Tokyo, Japan).

[17] = system: P. minimum; assay: as above; type: cell-based, Prorocentrum minimum; conditions: 10 mg/L, 4 h
Description: as §9

[18] = system: A. pacificum; assay: Observation of cellular morphology (optical microscope); type: cell-based, Alexandrium pacificum; conditions: 10 mg/L, 4 h
[19] = system: P. minimum; assay: ROS level (DCFH-DA fluorescent probe assay); type: cell-based, Prorocentrum minimum; conditions: 10 mg/L, 72 h
Description: as §6
(§10) The reactive oxygen species (ROS) assay kit was purchased from SolarBio Co., Ltd., Beijing, China. The 2′,7′-dichlorodihydrofluorescein diacetate (DCFH-DA) could be oxidized by reactive oxygen or nitrogen species (ROS/RNS) to generate high fluorescent 2′,7′-dichlorofluoroscein (DCF). DCF could be detected by Cyto-FLEX flow cytometry.

[20] = system: S. costatum; assay: ROS level (DCFH-DA fluorescent probe assay); type: cell-based, Skeletonema costatum; conditions: 10 mg/L, 72 h
Description: as §6, §10

| Compound | EC50 [1] [µg/mL] | EC50 [2] [µg/mL] | EC50 [3] [µg/mL] | inhibition at 50 µg/mL [4] [%] | Survival percent ([5]; zebrafish, 0.1 mg/L, 0h) | Survival percent ([5]; zebrafish, 0.1 mg/L, 24h) | Survival percent ([5]; zebrafish, 0.1 mg/L, 48h) | Survival percent ([5]; zebrafish, 0.1 mg/L, 72h) | Survival percent ([5]; zebrafish, 0.1 mg/L, 96h) | Survival percent ([5]; zebrafish, 1 mg/L, 0h) | Survival percent ([5]; zebrafish, 1 mg/L, 24h) | Survival percent ([5]; zebrafish, 1 mg/L, 48h) | Survival percent ([5]; zebrafish, 1 mg/L, 72h) | Survival percent ([5]; zebrafish, 1 mg/L, 96h) | Survival percent ([5]; zebrafish, 10 mg/L, 0h) | Survival percent ([5]; zebrafish, 10 mg/L, 24h) | Survival percent ([5]; zebrafish, 10 mg/L, 48h) | Survival percent ([5]; zebrafish, 10 mg/L, 72h) | Survival percent ([5]; zebrafish, 10 mg/L, 96h) | decrease of Fv/Fm of PSII in P. minimum [6] [fold] | other results |
| --- | --- | --- | --- | --- | --- | --- | --- | --- | --- | --- | --- | --- | --- | --- | --- | --- | --- | --- | --- | --- | --- |
| CC(=O)c1nc(C(=O)NCCc2c[nH]c3ccccc23)cs1 [bacillamide A] | 2.51 ± 0.09 (≈ 8.01 µM) | 2.17 ± 0.31 (≈ 6.92 µM) | 3.93 ± 0.28 (≈ 12.5 µM) | 55.3 | 100 | 100 | 100 | 100 | 100 | 100 | 100 | 87 | 83 | 83 | 100 | 100 | 100 | 100 | 100 | 2 | Acute toxicity ([5]; zebrafish, class by GB/T31270.12, LC50 (96 h)): low (LC50 (96 h) > 10 mg/L, low toxicity); decrease of quantum yield Fv/Fm of PSII in S. costatum [7]: 4 fold; increase of MDA levels in P. minimum [8]: 2.0 fold; increase of MDA levels in S. costatum [9]: 2.6 fold; algicidal activities against other microalgae [10]: did not display algicidal activities; antibacterial activity [11]: moderate antibacterial activity; antibacterial activity [12]: moderate antibacterial activity; antifungal activity [13]: slight antifungal activity |
| CCCCc1nc(C(=O)NCCc2c[nH]c3ccccc23)cs1 [Compound 6j] | 0.3 ± 0.02 (≈ 0.916 µM) | 0.47 ± 0.25 (≈ 1.44 µM) | 1 ± 0.11 (≈ 3.05 µM) | 70 to 95 | 100 | 100 | 100 | 100 | 100 | 100 | 100 | 100 | 80 | 80 | 100 | 80 | 0 | 0 | 0 | 3 | fold more potent than natural bacillamide A, Diuron, and CuSO4 ([2]; from EC50 against A. pacificum): 3–5 fold; fold more potent than natural bacillamide A, Diuron, and CuSO4 ([3]; from EC50 against P. minimum): 3–5 fold; inhibition rate against S. costatum [14]: 81.7%; inhibition at 50 µg/mL ([14]; Skeletonema costatum, read-out: inhibition rate against S. costatum): > 70%; inhibition at 50 µg/mL [15]: 71.9%; mortality in zebrafish ([5]; 10 mg/L, treatment for more than 48 h): 100%; cell morphology of S. costatum, micrographs [16]: broken or damaged or both; cell morphology of P. minimum, micrographs [17]: broken or damaged or both; cell morphology of A. pacificum, micrographs [18]: broken or damaged or both; decrease of quantum yield Fv/Fm of PSII in S. costatum [7]: 27 fold; increase of ROS levels in P. minimum [19]: 5.4 fold; increase of ROS levels in S. costatum [20]: 3 fold; increase of MDA levels in P. minimum [8]: 2.3 fold; increase of MDA levels in S. costatum [9]: 2.2 fold |
